# Data reported in PMC7411887, “New Paracyclophanylthiazoles with Anti-Leukemia Activity: Design, Synthesis, Molecular Docking, and Mechanistic Studies” (Molecules, 2020).
# Entries after “also recorded” stand apart in the source; their conditions may differ. Like-named read-outs stand apart in the source and are kept apart here.
# Columns and labels:
# BAX = BAX assay on leukemia SR cell line; format: cell-based, human; conditions: for BAX Concentration: ± SD
# Description: 19. Read the concentrations for unknown samples and controls from the standard curve.
# All standards, controls and samples should be run in duplicate. […]
# desiccant back into the pouch and seal the ziploc. Store unused wells at 4 °C.
# 4. Pipet 100 μL of the Samples into the appropriate wells.
# 7. Empty the contents of the wells and wash by adding 400 μL of wash solution to every well.
# 8. Repeat the wash 4 more times for a total of 5 washes.
# 9. After the final wash, empty or aspirate the wells and firmly tap the plate on a lint free paper towel to remove any remaining wash buffer.
# 10. Pipet 100 μL of yellow Antibody into each well, except the Blank.
# 12. Empty the contents of the wells and wash by adding 400 μL of wash solution to every
# 13. Repeat the wash 4 more times for a total of 5 washes.
# 14. After the final wash, empty or aspirate the wells and firmly tap the plate on a lint free
# (§1) 17. Empty the contents of the wells and wash by adding 400 μL of wash solution to every
# (§2) 18. Repeat the wash 4 more times for a total of 5 washes.
# (§3) 19. After the final wash, empty or aspirate the wells and firmly tap the plate on a lint free
# (§4) 20. Pipet 100 μL of Substrate Solution into each well.
# (§5) 21. Incubate for 30 minutes at room temperature on a plate shaker at ~500 rpm.
# (§6) 1. Mix all reagents thoroughly without foaming before use.
# (§7) 3. Take caution not to scratch the surface of the microwells.
# 5. Use the microwell strips immediately after washing or place upside down on a wet absorbent paper for not longer than 15 minutes.
# (§8) Prepare standard (1:2 dilution) in duplicate ranging from 32
# Bcl-2 = Bcl-2 assay on leukemia SR cell line; format: cell-based, human; conditions: for Bcl2 Concentration: ± SD
# Description: as §1, §2, §3
# paper towel to remove any remaining wash buffer.
# as §4, §5, §6, §7
# 5. Use the microwell strips immediately after washing or place upside down on a wet
# absorbent paper for not longer than 15 minutes.
# as §8
# 8. Add 50 μL of diluted biotin-conjugate to all wells, including the blank wells.
# 10. Remove plate cover and empty the wells.
# 13. Remove plate cover and empty the wells.
# Proceed to the next step.
# available on a rotator set at 100 rpm. Avoid direct exposure to intense light.
# leukemia SR cells = assay: Cell cycle analysis, propidium iodide flow cytometry; conditions: for DNA Content % %G0-G1 / DNA Content % %G2-M / DNA Content % %Pre G1 / DNA Content % %S: at IC50, 24 h
# SR cancer cell line = assay: Mitochondrial membrane potential assay; format: cell-based, human
# SNB-75 = assay: NCI five-dose assay; format: cell-based; conditions: CNS Cancer SNB-75
# PC-3 = assay: NCI five-dose assay; format: cell-based; conditions: Prostate Cancer PC-3
# SR = assay: NCI five-dose assay; format: cell-based; conditions: Leukemia SR
# SF-539 = assay: NCI five-dose assay; format: cell-based; conditions: CNS Cancer SF-539
# IGROV1 = assay: NCI five-dose assay; format: cell-based; conditions: Ovarian Cancer IGROV1
# RXF393 = assay: NCI five-dose assay; format: cell-based; conditions: Renal Cancer RXF393
# DU-145 = assay: NCI five-dose assay; format: cell-based; conditions: Homo sapiens, Prostate Cancer DU-145
# [1] = test system: 60 human tumor cell lines; assay: NCI five-dose assay, full panel; format: cell-based; conditions: for GI50: Homo sapiens
# Description: The outcomes were used to form log concentration vs. percentage growth inhibition curves and three response parameters (GI50, total growth inhibition (TGI), and LC50) were calculated for each cell line (Table 2).
# The criterion for selectivity of a compound depends upon the ratio obtained by dividing the full-panel MID (the average sensitivity of all cell lines toward the test agent) (μM) by the individual subpanel MIDs (μM).
# 786-0 = assay: NCI five-dose assay; format: cell-based; conditions: Renal Cancer 786-0
# MDA-MB-231/ATCC = assay: NCI five-dose assay; format: cell-based; conditions: Breast Cancer MDA-MB-231/ATCC
# NCI-H322M = assay: NCI five-dose assay; format: cell-based, human; conditions: Non-Small-Cell Lung Cancer NCI-H322M
# HS 578T = assay: NCI five-dose assay; format: cell-based; conditions: Breast Cancer HS 578T
# HCT-15 = assay: NCI five-dose assay; format: cell-based; conditions: Colon Cancer HCT-15
# M14 = assay: NCI five-dose assay; format: cell-based; conditions: Homo sapiens, Melanoma M14
# A549/ATCC = assay: NCI five-dose assay; format: cell-based; conditions: Non-Small-Cell Lung Cancer A549/ATCC
# SNB-19 = assay: NCI five-dose assay; format: cell-based; conditions: CNS Cancer SNB-19
# HL-60(TB) = assay: NCI five-dose assay; format: cell-based; conditions: Leukemia HL-60(TB)
# NCI-H460 = assay: NCI five-dose assay; format: cell-based; conditions: Non-Small-Cell Lung Cancer NCI-H460
# [2] = Homo sapiens, read-out: GI50 Concentration/Cell Line
# [3] = Homo sapiens, read-out: LC50 (the source's name)
# [4] = read-out: GI50 Concentration/Cell Line
smiles,measurement,setting,value
"COc1cc2c(c(OC)c1OC)-c1ccc(OC)c(=O)cc1[C@@H](NC(C)=O)CC2 [Colchicine, colchicine, reference compound]",BAX Concentration,BAX,341.8 ± 4.310 pg/mL
same,Bcl2 Concentration,Bcl-2,4.101 ± 0.1441 ng/mL
same,DNA Content % Comment,leukemia SR cells,cell growth arrest (G2/M)
same,DNA Content % %G0-G1,leukemia SR cells,26.58%
same,DNA Content % %G2-M,leukemia SR cells,48.15 ± 1.000 %
same,DNA Content % %Pre G1,leukemia SR cells,36.24%
same,DNA Content % %S,leukemia SR cells,25.27%
same,mitochondrial membrane potential % Live cells,SR cancer cell line,65.04%
same,mitochondrial membrane potential ΔΨm % Apoptic cells,SR cancer cell line,34.96%
same,shift in fluorescence (Δψmt) compared with control cells,SR cancer cell line,significant results
COC(=O)C=C1SC(=NNC(=O)c2cc3ccc2CCc2ccc(cc2)CC3)N(c2ccccc2)C1=O [Compound 3a],TGI Concentration/Cell Line,SNB-75,>100 µM
same,LC50,SNB-75; Homo sapiens,> 100 µM
same,GI50,SNB-75; [2],5.44 µM
same,LC50,PC-3; Homo sapiens,7.7 µM
same,GI50,PC-3; [2],1.71 µM
same,TGI Concentration/Cell Line,PC-3,3.63 µM
same,GI50,SR; [2],2.46 µM
same,CC50,SR; [3],> 100 µM
same,TGI Concentration/Cell Line,SR,>100 µM
same,BAX Fold Change,BAX; relative to control,~7.98 fold
same,BAX Concentration,BAX,359 ± 3.830 pg/mL
same,TGI Concentration/Cell Line,SF-539,3.32 µM
same,GI50,SF-539; [2],1.79 µM
same,CC50,SF-539; [3],6.18 µM
same,"LC50 (NCI lethal concentration, 50% net cell kill)","IGROV1; Homo sapiens, IGROV-1",6.44 µM
same,GI50,"IGROV1; Homo sapiens, IGROV-1, read-out: GI50 Concentration/Cell Line",1.66 µM
same,TGI Concentration/Cell Line,IGROV1,3.27 µM
same,LC50 (50% lethal concentration),"RXF393; Homo sapiens, RXF 393",> 100 µM
same,TGI Concentration/Cell Line,RXF393,3.86 µM
same,LC50,DU-145,> 100 µM
same,GI50,DU-145; [4],5.11 µM
same,GI50,"[1]; full panel, read-out: MID^a (GI50, average sensitivity of all cell lines)",2.38 µM
same,GI50,"[1]; nine subpanels, read-out: GI50 range over tested cell lines",1.52 to 7.56 µM
same,"MID^c (TGI, average sensitivity of all cell lines)",[1]; full panel,21.1 µM
same,GI50,786-0; [2],2 µM
same,CC50,786-0; [3],9.58 µM
same,TGI Concentration/Cell Line,786-0,4.38 µM
same,TGI Concentration/Cell Line,MDA-MB-231/ATCC,7.46 µM
same,LC50,MDA-MB-231/ATCC; Homo sapiens,> 100 µM
same,GI50,MDA-MB-231/ATCC; [2],2.63 µM
same,Bcl2 Fold Change,Bcl-2; relative to control,0.59 fold
same,Bcl2 Concentration,Bcl-2,5.045 ± 0.1918 ng/mL
same,GI50,NCI-H322M; [2],2.02 µM
same,TGI Concentration/Cell Line,NCI-H322M,4.75 µM
same,TGI Concentration/Cell Line,HS 578T,>100 µM
same,GI50,HS 578T; [2],3.49 µM
same,CC50,HS 578T; [3],> 100 µM
same,TGI Concentration/Cell Line,HCT-15,4.05 µM
same,LC50,HCT-15; Homo sapiens,8.76 µM
same,GI50,HCT-15; [2],1.87 µM
same,LC50,M14,> 100 µM
same,GI50,M14; [4],3.27 µM
same,DNA Content % Comment,leukemia SR cells,significant growth arrest at the G2/M phase; also recorded: cell growth arrest (G2/M)
same,DNA Content % %G0-G1,leukemia SR cells,31.47%
same,DNA Content % %G2-M,leukemia SR cells,44.74 ± 0.1747 %
same,DNA Content % %Pre G1,leukemia SR cells,33.71%
same,DNA Content % %S,leukemia SR cells,23.79%
same,mitochondrial membrane potential % Live cells,SR cancer cell line,68.8%
same,mitochondrial membrane potential ΔΨm % Apoptic cells,SR cancer cell line,31.2%
same,shift in fluorescence (Δψmt) compared with control cells,SR cancer cell line,non-significant shift
same,GI50,A549/ATCC; [2],2.83 µM
same,CC50,A549/ATCC; [3],> 100 µM
same,TGI Concentration/Cell Line,A549/ATCC,8.00 µM
same,TGI Concentration/Cell Line,SNB-19,4.25 µM
same,LC50 (concentration killing 50% of cells),SNB-19; Homo sapiens,9.26 µM
same,GI50,SNB-19; [2],1.95 µM
same,GI50,HL-60(TB); [2],2.7 µM
same,CC50,HL-60(TB); [3],> 100 µM
same,TGI Concentration/Cell Line,HL-60(TB),>100 µM
same,LC50 (50% lethal concentration),NCI-H460; Homo sapiens,8.82 µM
same,GI50,NCI-H460; [2],2.08 µM
same,TGI Concentration/Cell Line,NCI-H460,4.29 µM
